Assay results from article PMC6409085, “Three odorant-binding proteins are involved in the behavioral response of Sogatella furcifera to rice plant volatiles” (PeerJ, 2019).
Values joined by “and” are separate entries in the source; they are usually repeats but may differ in a detail not shown here. Identical values can stand only once.

Columns and labels:
SfurOBP1 = SfurOBP1 (Sogatella furcifera, UniProt V5T8N5); assay: biochemical; assay type: binding; conditions: for Fluorescence competitive binding assay, fluorescence intensity: OBP1, three replicate columns
How it was run: (§1)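 Fluorescence competitive binding with 1-NPN as reporter: 2.0 µM protein and 2.0 µM 1-NPN in 50 mM Tris-HCl pH 7.4, odorant added at 2–20 µM final. Excitation 337 nm, emission 390–490 nm read 2 min after addition, triplicates. Ki = IC50/(1 + [1-NPN]/K1-NPN).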

SfurOBP11 = SfurOBP11 (Sogatella furcifera, UniProt V5T6E3); assay: biochemical; assay type: binding
How it was run: as §1

SfurOBP2 = SfurOBP2 (Sogatella furcifera, UniProt V5T759); assay: biochemical; assay type: binding
How it was run: as §1

SfurOBP3 = SfurOBP3 (Sogatella furcifera, UniProt V5T818); assay: biochemical; assay type: binding; conditions: for Fluorescence competitive binding assay, fluorescence intensity: OBP3, three replicate columns
How it was run: as §1

S. furcifera adults = assay: Y-tube olfactometer behavioral trials; assay type: in vivo, Sogatella furcifera; conditions: odorant 50 µL/L vs hexane
How it was run: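 Single S. furcifera adults (2 days post-emergence, starved 0.5 h) chose between odorant (100 µL of 50 µL/L on filter paper) and hexane control in a glass Y-tube, charcoal-filtered humidified air 300 mL/min per arm, 25 ± 1 °C, 50% RH. Choice scored if insect passed half an arm and stayed >1 min within 10 min; 45 insects per compound, chi-squared test.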

SfurOBP1, sequence (V5T8N5 entry or part of it): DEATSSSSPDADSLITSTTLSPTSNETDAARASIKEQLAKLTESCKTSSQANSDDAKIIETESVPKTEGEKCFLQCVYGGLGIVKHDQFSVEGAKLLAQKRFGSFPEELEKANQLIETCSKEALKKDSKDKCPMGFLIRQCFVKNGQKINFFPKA
SfurOBP3, sequence (V5T818 entry or part of it): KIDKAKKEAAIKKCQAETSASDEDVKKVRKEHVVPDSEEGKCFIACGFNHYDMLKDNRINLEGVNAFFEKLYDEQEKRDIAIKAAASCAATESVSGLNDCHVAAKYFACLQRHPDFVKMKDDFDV
SfurOBP11, sequence (V5T6E3 entry or part of it): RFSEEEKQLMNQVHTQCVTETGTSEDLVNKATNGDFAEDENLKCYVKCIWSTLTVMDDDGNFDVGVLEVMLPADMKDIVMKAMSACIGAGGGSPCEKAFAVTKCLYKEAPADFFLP
SfurOBP2, sequence (V5T759 entry or part of it): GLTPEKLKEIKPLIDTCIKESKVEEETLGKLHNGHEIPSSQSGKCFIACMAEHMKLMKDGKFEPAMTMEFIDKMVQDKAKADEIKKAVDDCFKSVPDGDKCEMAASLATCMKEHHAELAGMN

- Fluorescence competitive binding assay, fluorescence intensity (SfurOBP1; ligand concentration 2 (μM)): 7113 and 7279 and 7196
- Fluorescence competitive binding assay, fluorescence intensity (SfurOBP1; ligand concentration 4 (μM)): 8035 and 6567 and 6323
- Fluorescence competitive binding assay, fluorescence intensity (SfurOBP1; ligand concentration 6 (μM)): 7198 and 8786 and 7995
- Fluorescence competitive binding assay, fluorescence intensity (SfurOBP1; ligand concentration 8 (μM)): 8545 and 7731 and 8071
- Fluorescence competitive binding assay, fluorescence intensity (SfurOBP1; ligand concentration 10 (μM)): 6799 and 7181 and 8487
- Fluorescence competitive binding assay, fluorescence intensity (SfurOBP1; ligand concentration 12 (μM)): 7177 and 8788 and 7408
- Fluorescence competitive binding assay, fluorescence intensity (SfurOBP1; ligand concentration 14 (μM)): 8520 and 7543 and 7998
- Fluorescence competitive binding assay, fluorescence intensity (SfurOBP1; ligand concentration 16 (μM)): 7196 and 9418 and 8283
- Fluorescence competitive binding assay, fluorescence intensity (SfurOBP1; ligand concentration 18 (μM)): 10247 and 9192 and 8904
- Fluorescence competitive binding assay, fluorescence intensity (SfurOBP1; ligand concentration 20 (μM)): 10042 and 9521 and 8702
- IC50 (SfurOBP1; SfurOBP1, protein and 1-NPN both 2.0 µM, competitor 2-20 µM, read-out: IC50): > 20 µM
- IC50 (SfurOBP11; SfurOBP11, protein and 1-NPN both 2.0 µM, competitor 2-20 µM, read-out: IC50): > 20 µM
- Fluorescence intensity, fluorescence competitive binding assay, OBP11 (SfurOBP11; ligand concentration 2, replicate 1): 24279
- Fluorescence intensity, fluorescence competitive binding assay, OBP11 (SfurOBP11; ligand concentration 2, replicate 2): 24939
- Fluorescence intensity, fluorescence competitive binding assay, OBP11 (SfurOBP11; ligand concentration 2, replicate 3): 29122
- Fluorescence intensity, fluorescence competitive binding assay, OBP11 (SfurOBP11; ligand concentration 4, replicate 1): 25640
- Fluorescence intensity, fluorescence competitive binding assay, OBP11 (SfurOBP11; ligand concentration 4, replicate 2): 28958
- Fluorescence intensity, fluorescence competitive binding assay, OBP11 (SfurOBP11; ligand concentration 4, replicate 3): 26788
- Fluorescence intensity, fluorescence competitive binding assay, OBP11 (SfurOBP11; ligand concentration 6, replicate 1): 25301
- Fluorescence intensity, fluorescence competitive binding assay, OBP11 (SfurOBP11; ligand concentration 6, replicate 2): 29174
- Fluorescence intensity, fluorescence competitive binding assay, OBP11 (SfurOBP11; ligand concentration 6, replicate 3): 26969
- Fluorescence intensity, fluorescence competitive binding assay, OBP11 (SfurOBP11; ligand concentration 8, replicate 1): 29061
- Fluorescence intensity, fluorescence competitive binding assay, OBP11 (SfurOBP11; ligand concentration 8, replicate 2): 28222
- Fluorescence intensity, fluorescence competitive binding assay, OBP11 (SfurOBP11; ligand concentration 8, replicate 3): 29900
- Fluorescence intensity, fluorescence competitive binding assay, OBP11 (SfurOBP11; ligand concentration 10, replicate 1): 27603
- Fluorescence intensity, fluorescence competitive binding assay, OBP11 (SfurOBP11; ligand concentration 10, replicate 2): 27689
- Fluorescence intensity, fluorescence competitive binding assay, OBP11 (SfurOBP11; ligand concentration 10, replicate 3): 19569
- Fluorescence intensity, fluorescence competitive binding assay, OBP11 (SfurOBP11; ligand concentration 12, replicate 1): 25318
- Fluorescence intensity, fluorescence competitive binding assay, OBP11 (SfurOBP11; ligand concentration 12, replicate 2): 27390
- Fluorescence intensity, fluorescence competitive binding assay, OBP11 (SfurOBP11; ligand concentration 12, replicate 3): 28182
- Fluorescence intensity, fluorescence competitive binding assay, OBP11 (SfurOBP11; ligand concentration 14, replicate 1): 26354
- Fluorescence intensity, fluorescence competitive binding assay, OBP11 (SfurOBP11; ligand concentration 14, replicate 2): 26978
- Fluorescence intensity, fluorescence competitive binding assay, OBP11 (SfurOBP11; ligand concentration 14, replicate 3): 26309
- Fluorescence intensity, fluorescence competitive binding assay, OBP11 (SfurOBP11; ligand concentration 16, replicate 1): 23481
- Fluorescence intensity, fluorescence competitive binding assay, OBP11 (SfurOBP11; ligand concentration 16, replicate 2): 24311
- Fluorescence intensity, fluorescence competitive binding assay, OBP11 (SfurOBP11; ligand concentration 16, replicate 3): 22273
- Fluorescence intensity, fluorescence competitive binding assay, OBP11 (SfurOBP11; ligand concentration 18, replicate 1): 28836
- Fluorescence intensity, fluorescence competitive binding assay, OBP11 (SfurOBP11; ligand concentration 18, replicate 2): 32227
- Fluorescence intensity, fluorescence competitive binding assay, OBP11 (SfurOBP11; ligand concentration 18, replicate 3): 28560
- Fluorescence intensity, fluorescence competitive binding assay, OBP11 (SfurOBP11; ligand concentration 20, replicate 1): 27143
- Fluorescence intensity, fluorescence competitive binding assay, OBP11 (SfurOBP11; ligand concentration 20, replicate 2): 27661
- Fluorescence intensity, fluorescence competitive binding assay, OBP11 (SfurOBP11; ligand concentration 20, replicate 3): 26182
- IC50 (SfurOBP2; SfurOBP2, protein and 1-NPN both 2.0 µM, competitor 2-20 µM, read-out: IC50): > 20 µM
- Fluorescence competitive binding assay, OBP2 (raw fluorescence reading) (SfurOBP2; ligand concentration 2 (unit not given), replicate column 1 of 3): 19179
- Fluorescence competitive binding assay, OBP2 (raw fluorescence reading) (SfurOBP2; ligand concentration 2 (unit not given), replicate column 2 of 3): 16653
- Fluorescence competitive binding assay, OBP2 (raw fluorescence reading) (SfurOBP2; ligand concentration 2 (unit not given), replicate column 3 of 3): 19027
- Fluorescence competitive binding assay, OBP2 (raw fluorescence reading) (SfurOBP2; ligand concentration 4 (unit not given), replicate column 1 of 3): 18170
- Fluorescence competitive binding assay, OBP2 (raw fluorescence reading) (SfurOBP2; ligand concentration 4 (unit not given), replicate column 2 of 3): 19771
- Fluorescence competitive binding assay, OBP2 (raw fluorescence reading) (SfurOBP2; ligand concentration 4 (unit not given), replicate column 3 of 3): 20766
- Fluorescence competitive binding assay, OBP2 (raw fluorescence reading) (SfurOBP2; ligand concentration 6 (unit not given), replicate column 1 of 3): 19862
- Fluorescence competitive binding assay, OBP2 (raw fluorescence reading) (SfurOBP2; ligand concentration 6 (unit not given), replicate column 2 of 3): 19512
- Fluorescence competitive binding assay, OBP2 (raw fluorescence reading) (SfurOBP2; ligand concentration 6 (unit not given), replicate column 3 of 3): 20651
- Fluorescence competitive binding assay, OBP2 (raw fluorescence reading) (SfurOBP2; ligand concentration 8 (unit not given), replicate column 1 of 3): 15792
- Fluorescence competitive binding assay, OBP2 (raw fluorescence reading) (SfurOBP2; ligand concentration 8 (unit not given), replicate column 2 of 3): 18755
- Fluorescence competitive binding assay, OBP2 (raw fluorescence reading) (SfurOBP2; ligand concentration 8 (unit not given), replicate column 3 of 3): 20463
- Fluorescence competitive binding assay, OBP2 (raw fluorescence reading) (SfurOBP2; ligand concentration 10 (unit not given), replicate column 1 of 3): 17421
- Fluorescence competitive binding assay, OBP2 (raw fluorescence reading) (SfurOBP2; ligand concentration 10 (unit not given), replicate column 2 of 3): 18400
- Fluorescence competitive binding assay, OBP2 (raw fluorescence reading) (SfurOBP2; ligand concentration 10 (unit not given), replicate column 3 of 3): 18628
- Fluorescence competitive binding assay, OBP2 (raw fluorescence reading) (SfurOBP2; ligand concentration 12 (unit not given), replicate column 1 of 3): 16986
- Fluorescence competitive binding assay, OBP2 (raw fluorescence reading) (SfurOBP2; ligand concentration 12 (unit not given), replicate column 2 of 3): 26722
- Fluorescence competitive binding assay, OBP2 (raw fluorescence reading) (SfurOBP2; ligand concentration 12 (unit not given), replicate column 3 of 3): 18513
- Fluorescence competitive binding assay, OBP2 (raw fluorescence reading) (SfurOBP2; ligand concentration 14 (unit not given), replicate column 1 of 3): 17500
- Fluorescence competitive binding assay, OBP2 (raw fluorescence reading) (SfurOBP2; ligand concentration 14 (unit not given), replicate column 2 of 3): 18527
- Fluorescence competitive binding assay, OBP2 (raw fluorescence reading) (SfurOBP2; ligand concentration 14 (unit not given), replicate column 3 of 3): 15051
- Fluorescence competitive binding assay, OBP2 (raw fluorescence reading) (SfurOBP2; ligand concentration 16 (unit not given), replicate column 1 of 3): 15983
- Fluorescence competitive binding assay, OBP2 (raw fluorescence reading) (SfurOBP2; ligand concentration 16 (unit not given), replicate column 2 of 3): 17600
- Fluorescence competitive binding assay, OBP2 (raw fluorescence reading) (SfurOBP2; ligand concentration 16 (unit not given), replicate column 3 of 3): 16529
- Fluorescence competitive binding assay, OBP2 (raw fluorescence reading) (SfurOBP2; ligand concentration 18 (unit not given), replicate column 1 of 3): 18709
- Fluorescence competitive binding assay, OBP2 (raw fluorescence reading) (SfurOBP2; ligand concentration 18 (unit not given), replicate column 2 of 3): 20674
- Fluorescence competitive binding assay, OBP2 (raw fluorescence reading) (SfurOBP2; ligand concentration 18 (unit not given), replicate column 3 of 3): 18464
- Fluorescence competitive binding assay, OBP2 (raw fluorescence reading) (SfurOBP2; ligand concentration 20 (unit not given), replicate column 1 of 3): 19401
- Fluorescence competitive binding assay, OBP2 (raw fluorescence reading) (SfurOBP2; ligand concentration 20 (unit not given), replicate column 2 of 3): 17294
- Fluorescence competitive binding assay, OBP2 (raw fluorescence reading) (SfurOBP2; ligand concentration 20 (unit not given), replicate column 3 of 3): 16214
- Fluorescence competitive binding assay, fluorescence intensity (SfurOBP3; ligand concentration 2): 68575 and 67242 and 67984
- Fluorescence competitive binding assay, fluorescence intensity (SfurOBP3; ligand concentration 4): 64299 and 63882 and 65677
- Fluorescence competitive binding assay, fluorescence intensity (SfurOBP3; ligand concentration 6): 63214 and 64264 and 71883
- Fluorescence competitive binding assay, fluorescence intensity (SfurOBP3; ligand concentration 8): 56987 and 54777 and 62435
- Fluorescence competitive binding assay, fluorescence intensity (SfurOBP3; ligand concentration 10): 56513 and 56201 and 65155
- Fluorescence competitive binding assay, fluorescence intensity (SfurOBP3; ligand concentration 12): 55112 and 58995 and 53063
- Fluorescence competitive binding assay, fluorescence intensity (SfurOBP3; ligand concentration 14): 51702 and 52973 and 56636
- Fluorescence competitive binding assay, fluorescence intensity (SfurOBP3; ligand concentration 16): 47206 and 51931 and 50397
- Fluorescence competitive binding assay, fluorescence intensity (SfurOBP3; ligand concentration 18): 54350 and 59148 and 62323
- Fluorescence competitive binding assay, fluorescence intensity (SfurOBP3; ligand concentration 20): 48786 and 51913 and 45060
- IC50 (SfurOBP3; SfurOBP3, protein and 1-NPN both 2.0 µM, competitor 2-20 µM, read-out: IC50): > 20 µM
Structure (SMILES): CCCCCCCC=O [octanal]
- behavioral response of S. furcifera (in words) (S. furcifera adults): significantly repelled
- number of insects choosing hexane arm (S. furcifera adults; adults): 15
- number of insects choosing volatilies arm (S. furcifera adults; adults): 8
- number of insects failed (no choice) (S. furcifera adults; adults): 17
